Assay results from US20090311217A1, “3-SUBSTITUTED-1H-INDOLE COMPOUNDS, THEIR USE AS MTOR KINASE AND PI3 KINASE INHIBITORS, AND THEIR SYNTHESES” (priority 2008, published 2009).
pIC50: −log10 of the molar value. Read-outs that look alike come from different tables or passages of the source.

How the values were obtained:
[1] = biological target: PI3K-gamma (Homo sapiens, UniProt P48736); experiment: PI3K-gamma fluorescence polarization assay; assay type: biochemical
Method: PI3K-Alpha, PI3K-Beta, PI3K-Gamma, and PI3K-delta Fluorescence Polarization Assay Protocols
PI3-Kinase reactions were performed in 5 mM HEPES, pH 7, 2.5 mM MgCl2, and 25 μM ATP, with diC8-PI(4,5)P2 (Echelon, Salt Lake City Utah) as substrate. Nunc 384-well black polypropylene fluorescent plates were used for PI3K assays. Reactions were quenched by the addition of EDTA to a final concentration of 10 mM. Final reaction volumes were 10 μl. For evaluation of PI3K inhibitors, 5 ng of enzyme (PI3K-alpha, beta, gamma, or delta) and 2.5 μM of substrate was used per […] reaction volume, and inhibitor concentrations ranged from 100 μM to 20 μM; the final level of DMSO in reactions never exceeded 2%. Reactions were allowed to proceed for one hour at 25° C. After 1 hour, GST-tagged GRP1 (general receptor for phosphoinositides) PH domain fusion protein was added to a final concentration of 100 nM, and BODIPY-TMRI(1,3,4,5)P4 (Echelon) was also added to a final concentration of 5 nM. Final sample volumes were 25 μl with a final DMSO concentration of 0.8%. Assay Plates were read on Perkin-Elmer Envision plate readers with appropriate filters for Tamra [BODIPY-TMRI(1,3,4,5)P4]. Data obtained were used to calculate enzymatic activity and enzyme inhibition by inhibitor compounds.

[2] = biological target: PI3K-alpha (Homo sapiens, UniProt P42336); experiment: PI3K-alpha fluorescence polarization assay; assay type: biochemical; details: read-out: PI3Kα Avg. IC50
PI3K-alpha, sequence (P42336 whole entry, species assumed): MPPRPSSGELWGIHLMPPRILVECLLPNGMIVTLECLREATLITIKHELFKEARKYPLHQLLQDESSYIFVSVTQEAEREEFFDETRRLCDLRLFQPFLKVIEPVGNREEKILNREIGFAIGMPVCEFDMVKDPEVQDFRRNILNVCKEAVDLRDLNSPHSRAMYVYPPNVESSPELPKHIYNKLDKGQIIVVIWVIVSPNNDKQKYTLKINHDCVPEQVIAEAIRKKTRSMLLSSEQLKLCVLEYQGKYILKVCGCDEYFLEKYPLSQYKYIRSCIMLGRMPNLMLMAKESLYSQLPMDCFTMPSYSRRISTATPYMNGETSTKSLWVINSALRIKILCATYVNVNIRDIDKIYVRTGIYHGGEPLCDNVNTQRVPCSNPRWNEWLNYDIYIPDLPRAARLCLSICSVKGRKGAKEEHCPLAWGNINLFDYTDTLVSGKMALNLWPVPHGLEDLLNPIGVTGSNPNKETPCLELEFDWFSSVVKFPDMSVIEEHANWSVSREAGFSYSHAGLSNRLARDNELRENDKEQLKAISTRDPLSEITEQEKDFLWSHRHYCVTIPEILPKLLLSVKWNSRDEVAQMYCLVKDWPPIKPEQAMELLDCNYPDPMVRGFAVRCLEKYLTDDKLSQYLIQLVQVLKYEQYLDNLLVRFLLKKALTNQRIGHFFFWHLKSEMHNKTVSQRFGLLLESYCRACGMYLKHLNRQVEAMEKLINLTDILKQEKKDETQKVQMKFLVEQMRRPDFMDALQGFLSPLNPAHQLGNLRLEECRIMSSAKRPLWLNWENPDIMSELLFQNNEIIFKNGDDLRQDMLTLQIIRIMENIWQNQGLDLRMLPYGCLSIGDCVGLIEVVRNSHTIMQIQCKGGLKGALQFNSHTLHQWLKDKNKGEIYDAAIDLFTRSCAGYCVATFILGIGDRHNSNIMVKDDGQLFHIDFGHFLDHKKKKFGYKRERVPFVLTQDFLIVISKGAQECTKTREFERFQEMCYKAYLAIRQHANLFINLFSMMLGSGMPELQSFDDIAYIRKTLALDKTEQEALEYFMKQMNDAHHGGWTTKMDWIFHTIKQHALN
PI3K-alpha, sequence (P27986 whole entry partner, species assumed): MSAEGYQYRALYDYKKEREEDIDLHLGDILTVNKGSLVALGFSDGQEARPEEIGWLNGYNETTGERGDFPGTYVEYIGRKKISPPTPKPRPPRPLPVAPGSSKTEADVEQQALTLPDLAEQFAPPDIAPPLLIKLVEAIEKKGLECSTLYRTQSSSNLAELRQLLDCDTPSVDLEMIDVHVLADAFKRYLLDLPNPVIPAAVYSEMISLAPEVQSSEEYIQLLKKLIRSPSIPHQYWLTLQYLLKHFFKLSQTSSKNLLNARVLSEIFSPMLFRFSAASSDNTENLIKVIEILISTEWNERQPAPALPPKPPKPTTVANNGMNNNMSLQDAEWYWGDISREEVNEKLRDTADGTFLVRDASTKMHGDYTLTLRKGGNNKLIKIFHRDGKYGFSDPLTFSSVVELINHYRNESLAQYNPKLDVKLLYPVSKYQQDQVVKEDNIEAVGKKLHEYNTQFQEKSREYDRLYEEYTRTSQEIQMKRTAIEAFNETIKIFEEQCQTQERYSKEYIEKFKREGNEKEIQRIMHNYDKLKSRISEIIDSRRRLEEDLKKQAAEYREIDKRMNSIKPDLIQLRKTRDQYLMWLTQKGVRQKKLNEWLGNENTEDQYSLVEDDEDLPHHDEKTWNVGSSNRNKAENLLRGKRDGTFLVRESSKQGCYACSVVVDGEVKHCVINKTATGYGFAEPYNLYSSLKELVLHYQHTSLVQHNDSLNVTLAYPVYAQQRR

PI3K-gamma, sequence (P48736 whole entry, species assumed): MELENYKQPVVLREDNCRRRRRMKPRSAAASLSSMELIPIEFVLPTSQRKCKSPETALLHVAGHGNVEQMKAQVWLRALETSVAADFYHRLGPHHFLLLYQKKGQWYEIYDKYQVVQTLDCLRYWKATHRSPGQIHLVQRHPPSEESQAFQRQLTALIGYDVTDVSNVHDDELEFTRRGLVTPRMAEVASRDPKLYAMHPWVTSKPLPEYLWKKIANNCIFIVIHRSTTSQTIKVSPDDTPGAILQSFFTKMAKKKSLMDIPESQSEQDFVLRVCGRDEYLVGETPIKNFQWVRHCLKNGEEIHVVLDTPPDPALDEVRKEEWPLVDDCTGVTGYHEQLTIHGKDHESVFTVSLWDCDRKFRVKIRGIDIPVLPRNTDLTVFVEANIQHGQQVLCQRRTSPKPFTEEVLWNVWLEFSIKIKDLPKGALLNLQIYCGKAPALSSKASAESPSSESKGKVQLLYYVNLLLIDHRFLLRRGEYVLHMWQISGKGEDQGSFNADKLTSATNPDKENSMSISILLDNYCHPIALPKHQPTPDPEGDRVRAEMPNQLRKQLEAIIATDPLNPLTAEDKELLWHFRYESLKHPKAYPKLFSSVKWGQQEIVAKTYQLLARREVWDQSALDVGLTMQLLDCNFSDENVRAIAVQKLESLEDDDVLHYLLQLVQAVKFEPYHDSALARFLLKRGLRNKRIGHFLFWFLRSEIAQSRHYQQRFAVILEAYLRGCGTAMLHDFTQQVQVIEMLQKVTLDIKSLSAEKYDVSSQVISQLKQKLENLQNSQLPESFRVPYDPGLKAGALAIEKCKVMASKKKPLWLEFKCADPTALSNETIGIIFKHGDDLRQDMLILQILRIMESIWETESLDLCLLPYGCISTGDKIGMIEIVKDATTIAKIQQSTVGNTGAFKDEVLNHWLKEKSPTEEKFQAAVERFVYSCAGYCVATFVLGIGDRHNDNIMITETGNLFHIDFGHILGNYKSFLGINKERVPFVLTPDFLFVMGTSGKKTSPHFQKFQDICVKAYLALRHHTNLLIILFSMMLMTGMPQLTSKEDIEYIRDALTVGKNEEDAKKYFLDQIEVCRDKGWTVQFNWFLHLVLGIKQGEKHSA

Row | pIC50 [2] | pIC50 ([1]; PI3Kγ Avg. IC50) | Molecule | pIC50 ([1]; read-out: PI3Kγ Avg. IC50)
1 | 6.58 | 5.67 | Cn1cc(C=C2Oc3cc(O)cc(O)c3C2=O)c2c(-c3ccccc3)cccc21 (single isomer, unassigned) [Compound 544, (2E)-4,6-dihydroxy-2-[(1-methyl-4-phenyl-1H-indol-3-yl)methylene]-1-benzofuran-3(2H)-one-(2Z)-4,6-dihydroxy-2-[(1-methyl-4-phenyl-1H-indol-3-yl)methylene]-1-benzofuran-3(2H)-one (1:1)] | 
2 | 7.20 | 6.86 | CCc1cc(OC)cc2c(C=C3Oc4cc(O)cc(O)c4C3=O)cn(CCCC#N)c12 [Compound 471, 4-{3-[(4,6-dihydroxy-3-oxo-1-benzofuran-2(3H)-ylidene)methyl]-7-ethyl-5-methoxy-1H-indol-1-yl}butanenitrile] | 
3 |  | 5.16 | Cn1cc(/C=C2\Oc3cc(O)cc(O)c3C2=O)c2ccccc21 [Example 16, (2Z)-4,6-dihydroxy-2-[(1-methyl-1H-indol-3-yl)methylene]-1-benzofuran-3(2H)-one] | 
4 | 6.08 |  | COc1ccc2c(c1)c(C=C1Oc3c(ccc(O)c3O)C1=O)c(C)n2CCCCN1CCOCC1 [Example 145, 6,7-dihydroxy-2-{[5-methoxy-2-methyl-1-(4-morpholin-4-ylbutyl)-1H-indol-3-yl]methylene}-1-benzofuran-3(2H)-one] | 
5 | 6.07 |  | COc1ccc2c(c1)c(C=C1Oc3c(ccc(O)c3O)C1=O)c(C)n2CCCCN1CCN(CCO)CC1 [Example 146, 6,7-dihydroxy-2-[(1-{4-[4-(2-hydroxyethyl)piperazin-1-yl]butyl}-5-methoxy-2-methyl-1H-indol-3-yl)methylene]-1-benzofuran-3(2H)-one] | 
6 | 5.39 |  | Cc1c(C=C2Oc3cc(O)cc(O)c3C2=O)c2cc(F)ccc2n1C [Example 235, 2-[(5-fluoro-1,2-dimethyl-1H-indol-3-yl)methylene]-4,6-dihydroxy-1-benzofuran-3(2H)-one] | 
7 | 5.88 |  | Cc1[nH]c2ccccc2c1/C=C1\Sc2ccccc2C1=O [Example 272, (2Z)-2-[(2-methyl-1H-indol-3-yl)methylene]-1-benzothiophen-3(2H)-one] | 
8 | 5.02 |  | O=C1/C(=C/c2c[nH]c3ccccc23)Sc2ccccc21 [Example 273, (2Z)-2-(1H-indol-3-ylmethylene)-1-benzothiophen-3(2H)-one] | 
9 | 5.55 |  | Cn1c(-c2ccccc2)c(/C=C2\Sc3ccccc3C2=O)c2ccccc21 [Example 275, (2Z)-2-[(1-methyl-2-phenyl-1H-indol-3-yl)methylene]-1-benzothiophen-3(2H)-one] | 
10 | < 5.00 |  | O=C1/C(=C/c2c(-c3ccc4ccccc4c3)[nH]c3ccccc23)Sc2ccccc21 [Example 276, (2Z)-2-{[2-(2-naphthyl)-1H-indol-3-yl]methylene}-1-benzothiophen-3(2H)-one] | 
11 | 5.51 |  | Cn1cc(/C=C2\Sc3ccccc3C2=O)c2ccccc21 [Example 278, (2Z)-2-[(1-methyl-1H-indol-3-yl)methylene]-1-benzothiophen-3(2H)-one] | 
12 | < 5.00 |  | Cc1ccc2c(/C=C3\Sc4ccccc4C3=O)c[nH]c2c1 [Example 279, (2Z)-2-[(6-methyl-1H-indol-3-yl)methylene]-1-benzothiophen-3(2H)-one] | 
13 | 5.34 |  | Cc1cccc2c(/C=C3\Sc4ccccc4C3=O)c[nH]c12 [Example 280, (2Z)-2-[(7-methyl-1H-indol-3-yl)methylene]-1-benzothiophen-3(2H)-one] | 
14 | < 5.00 |  | O=C1/C(=C/c2c[nH]c3ccccc23)Sc2ccc(Cl)cc21 [Example 281, (2Z)-5-chloro-2-(1H-indol-3-ylmethylene)-1-benzothiophen-3(2H)-one] | 
15 | 5.85 |  | O=C1/C(=C/c2cn(Cc3ccccc3)c3ccccc23)Sc2ccccc21 [Example 282, (2Z)-2-[(1-benzyl-1H-indol-3-yl)methylene]-1-benzothiophen-3(2H)-one] | 
16 | < 5.00 |  | O=C1/C(=C/c2c(-c3ccccc3)[nH]c3ccccc23)Sc2ccc(Cl)cc21 [Example 283, (2Z)-5-chloro-2-[(2-phenyl-1H-indol-3-yl)methylene]-1-benzothiophen-3(2H)-one] | 

Row | pIC50 [2] | pIC50 ([1]; PI3Kγ Avg. IC50) | Molecule | pIC50 ([1]; read-out: PI3Kγ Avg. IC50)
17 | < 5.00 |  | O=C1/C(=C/c2c(-c3ccc(Cl)cc3)[nH]c3ccccc23)Sc2ccc(Cl)cc21 [Example 284, (2Z)-5-chloro-2-{[2-(4-chlorophenyl)-1H-indol-3-yl]methylene}-1-benzothiophen-3(2H)-one] | 
18 | < 5.00 |  | O=C1/C(=C/c2c(-c3ccc(F)cc3)[nH]c3ccccc23)Sc2ccc(Cl)cc21 [Example 286, (2Z)-5-chloro-2-{[2-(4-fluorophenyl)-1H-indol-3-yl]methylene}-1-benzothiophen-3(2H)-one] | 
19 | < 5.00 |  | O=C1/C(=C/c2cn(Cc3ccccc3)c3ccccc23)Sc2ccc(Cl)cc21 [Example 287, (2Z)-2-[(1-benzyl-1H-indol-3-yl)methylene]-5-chloro-1-benzothiophen-3(2H)-one] | 
20 | < 5.00 |  | O=C1/C(=C/c2c[nH]c3ccc(OCc4ccccc4)cc23)Sc2ccc(Cl)cc21 [Example 288, (2Z)-2-{[5-(benzyloxy)-1H-indol-3-yl]methylene}-5-chloro-1-benzothiophen-3(2H)-one] | 
21 | 4.97 |  | Cc1ccc2c(c1)C(=O)/C(=C/c1c[nH]c3ccccc13)S2 [Example 289, (2Z)-2-(1H-indol-3-ylmethylene)-5-methyl-1-benzothiophen-3(2H)-one] | 
22 | 5.04 |  | Cc1ccc2c(c1)C(=O)/C(=C/c1c(-c3ccccc3)[nH]c3ccccc13)S2 [Example 290, (2Z)-5-methyl-2-[(2-phenyl-1H-indol-3-yl)methylene]-1-benzothiophen-3(2H)-one] | 
23 | < 5.00 |  | Cc1ccc2c(c1)C(=O)/C(=C/c1c(-c3ccc(Cl)cc3)[nH]c3ccccc13)S2 [Example 291, (2Z)-2-{[2-(4-chlorophenyl)-1H-indol-3-yl]methylene}-5-methyl-1-benzothiophen-3(2H)-one] | 
24 | < 5.00 |  | Cc1ccc2c(c1)C(=O)/C(=C/c1c[nH]c3cc(C)ccc13)S2 [Example 292, (2Z)-5-methyl-2-[(6-methyl-1H-indol-3-yl)methylene]-1-benzothiophen-3(2H)-one] | 
25 | < 5.00 |  | Cc1ccc2c(c1)C(=O)/C(=C/c1c[nH]c3c(C)cccc13)S2 [Example 293, (2Z)-5-methyl-2-[(7-methyl-1H-indol-3-yl)methylene]-1-benzothiophen-3(2H)-one] | 
26 | < 5.00 |  | Cc1ccc2c(c1)C(=O)/C(=C/c1c[nH]c3ccc(Br)cc13)S2 [Example 294, (2Z)-2-[(5-bromo-1H-indol-3-yl)methylene]-5-methyl-1-benzothiophen-3(2H)-one] | 
27 | < 5.00 |  | Cc1ccc2c(c1)C(=O)/C(=C/c1c[nH]c3ccc(OCc4ccccc4)cc13)S2 [Example 295, (2Z)-2-{[5-(benzyloxy)-1H-indol-3-yl]methylene}-5-methyl-1-benzothiophen-3(2H)-one] | 
28 | 4.92 |  | Cc1ccc2c(c1)C(=O)C(=Cc1c(-c3ccc4ccccc4c3)[nH]c3ccccc13)S2 [Example 296, 5-methyl-2-{[2-(2-naphthyl)-1H-indol-3-yl]methylene}-1-benzothiophen-3(2H)-one] | 
29 | < 5.00 |  | Cc1ccc2c(c1)C(=O)C(=Cc1c(-c3ccc(F)cc3)[nH]c3ccccc13)S2 [Example 297, 2-{[2-(4-fluorophenyl)-1H-indol-3-yl]methylene}-5-methyl-1-benzothiophen-3(2H)-one] | 
30 | 5.04 |  | Cc1ccc2c(c1)C(=O)C(=Cc1c(C)[nH]c3ccc([N+](=O)[O-])cc13)S2 [Example 298, 5-methyl-2-[(2-methyl-5-nitro-1H-indol-3-yl)methylene]-1-benzothiophen-3(2H)-one] | 
31 | < 5.00 |  | Cc1ccc2c(c1)C(=O)C(=Cc1cn(C)c3ccccc13)S2 [Example 299, 5-methyl-2-[(1-methyl-1H-indol-3-yl)methylene]-1-benzothiophen-3(2H)-one] | 

Row | Molecule | pIC50 [2] | pIC50 ([1]; PI3Kγ Avg. IC50) | pIC50 ([1]; read-out: PI3Kγ Avg. IC50)
32 | 4-hydroxy-2-({5-methoxy-2-methyl-1-[2-(4-methylpiperazin-1-yl)ethyl]-1H-indol-3-yl}methylene)-1-benzofuran-3(2H)-one [Example 129] | 6.31 |  | 5.35
33 | 4-hydroxy-2-[(1-{2-[4-(2-hydroxyethyl)piperazin-1-yl]ethyl}-5-methoxy-2-methyl-1H-indol-3-yl)methylene]-1-benzofuran-3(2H)-one [Example 131] | 6.32 |  | 5.40
34 | 4-hydroxy-2-{[5-methoxy-2-methyl-1-(2-morpholin-4-ylethyl)-1H-indol-3-yl]methylene}-1-benzofuran-3(2H)-one [Example 130] | 6.19 |  | 5.38
35 | 6,7-dihydroxy-2-({5-methoxy-2-methyl-1-[4-(4-methylpiperazin-1-yl)butyl]-1H-indol-3-yl}methylene)-1-benzofuran-3(2H)-one [Example 132] | 6.47 |  | 5.38
36 | 6,7-dihydroxy-2-[(1-{4-[4-(2-hydroxyethyl)piperazin-1-yl]butyl}-5-methoxy-2-methyl-1H-indol-3-yl)methylene]-1-benzofuran-3(2H)-one [Example 134] | 6.69 |  | 5.50
37 | 6,7-dihydroxy-2-{[5-methoxy-2-methyl-1-(4-morpholin-4-ylbutyl)-1H-indol-3-yl]methylene}-1-benzofuran-3(2H)-one [Example 133] | 6.64 |  | 6.02
